Experiments:
[1] = target: rPfGSK-3 (Plasmodium falciparum, UniProt O77344); experiment: KinaseGlo Plus assay for inhibition of PfGSK-3; format: biochemical; conditions: 10 µM; remaining activity, calculated on DMSO controls; Table 3; read-out: rPfGSK-3 Activity at 10 µM [%]
[2] = system: erythrocytic forms of P. falciparum (strain 3D7); experiment: Viability screening of antiplasmodial activity (SYBR-gold DNA quantification, 96 h); format: cell-based, Plasmodium falciparum; conditions: for activity at 0.3 µM / activity at 3 µM / IC50: Plasmodium falciparum; for activity at 0.3 µM / activity at 3 µM: 96 h, strain 3D7, calculated on DMSO controls; for activity at 0.3 µM: read-out: Parasitemia (3D7) at 0.3 µM [%]; for activity at 3 µM: read-out: Parasitemia (3D7) at 3 µM [%]; for SI (Selectivity index for 3D7 erythrocytic forms versus HEK293 cells): 3D7 versus HEK293 cells; for IC50: 3D7, strain 3D7, erythrocytic forms
[3] = in vitro; format: cell-based, human; conditions: human, HEK293T Viability at 30 µM [%]
Protocol: Cytotoxic effects of test compounds on eukaryotic cells were investigated using a HEK293T cell viability assay. First, the cell density of a HEK293T culture was determined. […] The supernatant was then aspirated and fresh culture medium was added to 200 μL into which the test compounds were previously added. All substances were previously dissolved in DMSO. […] The viability of the cells was then examined by adding PrestoBlue® Cell Viability Agent (Invitrogen, Carlsbad, CA, USA). The supernatant was removed, 10% PrestoBlue® was added in preheated PBS and the culture was incubated for 30 min at 37 °C. In cells with an active metabolism, the PrestoBlue dye is reduced, causing it to fluorescence. The fluorescence (λex = 560 nm, λem = 590 nm) was measured in an EnVision Multilable Plate Reader (Perkin Elmer, Waltham, MA, USA; integration time 0.1 sec/well).

Sequence of rPfGSK-3 (O77344 entry or part of it): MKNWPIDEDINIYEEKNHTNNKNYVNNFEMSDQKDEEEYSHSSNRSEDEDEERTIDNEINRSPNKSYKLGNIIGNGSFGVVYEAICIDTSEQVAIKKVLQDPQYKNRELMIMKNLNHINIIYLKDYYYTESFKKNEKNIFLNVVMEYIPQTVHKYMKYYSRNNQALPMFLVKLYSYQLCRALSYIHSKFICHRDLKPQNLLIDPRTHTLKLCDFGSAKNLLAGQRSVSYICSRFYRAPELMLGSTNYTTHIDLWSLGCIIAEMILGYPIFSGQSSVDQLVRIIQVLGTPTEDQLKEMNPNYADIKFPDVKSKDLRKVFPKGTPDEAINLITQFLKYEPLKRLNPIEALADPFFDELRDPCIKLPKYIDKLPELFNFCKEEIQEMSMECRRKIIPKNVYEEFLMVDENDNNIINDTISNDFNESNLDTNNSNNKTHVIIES

| SMILES | remaining activity at 10 µM [1] | activity at 0.3 µM [2] | activity at 3 µM ([2]; 3 µM) | viability at 48 h, 30 µM [3] | SI (Selectivity index for 3D7 erythrocytic forms versus HEK293 cells) [2] | IC50 [2] | antiplasmodial activity at the concentration investigated (in words) ([2]; 3 µM) | IC50 (3D7) [nM] ([2]; strain 3D7, erythrocytic forms) |
| --- | --- | --- | --- | --- | --- | --- | --- | --- |
| CC(C)(C)OC(=O)N1CCN(c2ccc(-c3c4c(nc5sc(C(=O)Nc6ccc(Cl)cc6)c(N)c35)CCCC4)c(Cl)c2)CC1 [Compound 17k, tert-Butyl 4-(4-{3-amino-2-[(4-chlorophenyl)carbamoyl]-5,6,7,8-tetrahydrothieno[2,3-b]quinolin-4-yl}-3-chlorophenyl)piperazine-1-carboxylate] | 106 ± 18.7% | 30 ± 24.9% | 2.6 ± 9% | 84.3 ± 14.3% |  |  |  |  |
| Cc1cccc(-c2c(C(=O)OC(C)(C)C)c(C)nc3sc(C(=O)Nc4ccc(Cl)cc4)c(N)c23)c1 [Compound 17h, tert-Butyl 3-amino-2-[(4-chlorophenyl)carbamoyl]-6-methyl-4-(3-methylphenyl)thieno[2,3-b]pyridine-5-carboxylate] | 106 ± 5.3% | 11.8 ± 12.3% | 2.3 ± 14.5% | < 50% |  |  |  |  |
| N#Cc1c(N)nc2sc(C(=O)Nc3ccc(Cl)cc3)c(N)c2c1-c1ccc(N2CCOCC2)cc1Cl [Compound 9v, 3,6-Diamino-4-(2-chloro-4-morpholinophenyl)-N-(4-chlorophenyl)-5-cyanothieno[2,3-b]pyridine-2-carboxamide] | 91.8 ± 18.7% | 51.8 ± 38.6% | 6.2 ± 6.1% | 92.3 ± 18.8% | >20 | 1470 nM |  |  |
| Cc1cccc(-c2c(C(=O)O)c(C)nc3sc(C(=O)Nc4ccc(Cl)cc4)c(N)c23)c1 [Compound 17i, 3-Amino-2-[(4-chlorophenyl)carbamoyl]-6-methyl-4-(3-methylphenyl)thieno[2,3-b]pyridine-5-carboxylic acid] | 106 ± 8% | 99.8 ± 18.8% | 62.4 ± 21.5% | 87.6 ± 19.6% |  |  | only low |  |
| Cc1cc(-c2ccc(N3CCN(C(=O)OC(C)(C)C)CC3)cc2Cl)c2c(N)c(C(=O)Nc3ccc(Cl)cc3)sc2n1 [Compound 17l, tert-Butyl 4-(4-{3-amino-2-[(4-chlorophenyl)carbamoyl]-6-methylthieno[2,3-b]pyridin-4-yl}-3-chloro-phenyl)piperazine-1-carboxylate] | 103 ± 12.9% | 25.5 ± 14.4% | 1 ± 6.9% | 68.4 ± 24.3% | >100 | 55.5 nM |  | two-digit nanomolar range |
| N#Cc1c(N)nc2sc(C(=O)Nc3ccccc3Cl)c(N)c2c1-c1cccc(F)c1 [Compound 9b, 3,6-Diamino-N-(2-chlorophenyl)-5-cyano-4-(3-fluorophenyl)thieno[2,3-b]pyridine-2-carboxamide] | 102 ± 16.5% | 96 ± 1.9% | 46 ± 19.7% | 101 ± 19.6% |  |  |  |  |
| CC(C)(C)OC(=O)N1CCN(c2ccc(-c3c(C#N)c(N)nc4sc(C(=O)Nc5cccc(Cl)c5)c(N)c34)c(Cl)c2)CC1 [Compound 9p, tert-Butyl 4-(3-chloro-4-{3,6-diamino-2-[(3-chlorophenyl)carbamoyl]-5-cyanothieno[2,3-b]pyridin-4-yl}phenyl)piperazine-1-carboxylate] | 111 ± 12.1% | 48.3 ± 18% | 5.4 ± 3.2% | 104 ± 14.1% |  |  |  |  |
| N#Cc1c(N)nc2sc(C(=O)Nc3ccc(F)cc3)c(N)c2c1-c1cccc(F)c1 [Compound 9i, 3,6-Diamino-5-cyano-4-(3-fluorophenyl)-N-(4-fluorophenyl)thieno[2,3-b]pyridine-2-carboxamide] | 70.9 ± 19.8% | 65.8 ± 24.6% | 6.1 ± 4.9% | < 50% |  |  |  |  |
| Cc1cccc(-c2c(C#N)c(N)nc3sc(C(=O)NC(C)C)c(N)c23)c1 [Compound 9l, 3,6-Diamino-5-cyano-N-isopropyl-4-(3-methylphenyl)thieno[2,3-b]pyridine-2-carboxamide] | 54.1 ± 15.5% | 80.6 ± 22% | 79.8 ± 20.3% | 70.6 ± 23% |  |  |  |  |
| N#Cc1c(N)nc2sc(C(=O)Nc3ccc(Cl)cc3)c(N)c2c1-c1cccc(F)c1 [Compound 9h, 3,6-Diamino-N-(4-chlorophenyl)-5-cyano-4-(3-fluorophenyl)thieno[2,3-b]pyridine-2-carboxamide] | 104 ± 13.3% | 63.2 ± 19.5% | 3.9 ± 2.9% | 90.7 ± 13.2% |  |  |  |  |
| CCCCCCCNC(=O)c1sc2nc(N)c(C#N)c(-c3cccc(C)c3)c2c1N [Compound 9k, 3,6-Diamino-5-cyano-N-heptyl-4-(3-methylphenyl)thieno[2,3-b]pyridine-2-carboxamide] | 84.7 ± 10.6% | 72.7 ± 28.2% | 84 ± 27% | 54.3 ± 19.1% |  |  |  |  |
| CC(C)(C)OC(=O)N1CCN(c2ccc(-c3c4c(nc5sc(C(=O)Nc6ccc(Cl)cc6)c(N)c35)CCC4)c(Cl)c2)CC1 [Compound 17a, tert-Butyl 4-(4-{3-amino-2-[(4-chlorophenyl)carbamoyl]-6,7-dihydro-5H-cyclopenta[b]thieno[3,2-e]-pyridin-4-yl}-3-chlorophenyl)piperazine-1-carboxylate] | 102 ± 4% | 50.5 ± 26.3% | 8 ± 10.2% | 93.9 ± 6.5% |  |  |  |  |
| N#Cc1c(N)nc2sc(C(=O)Nc3ccccc3Cl)c(N)c2c1-c1ccc(N2CCCC2)cc1Cl [Compound 9t, 3,6-Diamino-4-[2-chloro-4-(pyrrolidin-1-yl)phenyl]-N-(2-chlorophenyl)-5-cyanothieno[2,3-b]pyridine-2-carboxamide] | 105 ± 6.6% | 68.9 ± 27.3% | 60.6 ± 23.7% | 99 ± 22.6% |  |  |  |  |
| N#Cc1c(N)nc2sc(C(=O)Nc3cccc(Cl)c3)c(N)c2c1-c1ccc(N2CCCC2)cc1Cl [Compound 9s, 3,6-Diamino-4-[2-chloro-4-(pyrrolidin-1-yl)phenyl]-N-(3-chlorophenyl)-5-cyanothieno[2,3-b]pyridine-2-carboxamide] | 113 ± 15.9% | 78.3 ± 15.2% | 4.8 ± 5% | 114 ± 40.3% |  |  |  |  |
| N#Cc1c(N)nc2sc(C(=O)Nc3ccc(Cl)cc3)c(N)c2c1-c1cccc(Cl)c1 [Compound 9a, 3,6-Diamino-4-(3-chlorophenyl)-N-(4-chlorophenyl)-5-cyanothieno[2,3-b]pyridine-2-carboxamide] | 80.3 ± 18.2% | 23.1 ± 10.8% | 3.7 ± 3.6% | 123 ± 8.4% | >70 | 410 nM |  |  |
| N#Cc1c(N)nc2sc(C(=O)Nc3cccc(Cl)c3)c(N)c2c1-c1ccc(N2CCOCC2)cc1Cl [Compound 9r, 3,6-Diamino-4-(2-chloro-4-morpholinophenyl)-N-(3-chlorophenyl)-5-cyanothieno[2,3-b]pyridine-2carboxamide] | 108 ± 16.5% | 45.7 ± 17.2% | 2.8 ± 3.6% | 105 ± 10% |  |  |  |  |
| CN(C)CCN(C)c1ccc(-c2c(C#N)c(N)nc3sc(C(=O)Nc4ccc(F)cc4)c(N)c23)c(Cl)c1 [Compound 9ab, 3,6-Diamino-4-(2-chloro-4-{[2-(dimethylamino)ethyl](methyl)amino}phenyl)-5-cyano-N-(4-fluorophenyl)thieno[2,3-b]pyridine-2-carboxamide] | 112 ± 13.9% | 16.7 ± 19.5% | 1.6 ± 11% | -1.4 ± 13.1% |  |  |  |  |

From article PMC7397174, “4-Arylthieno[2,3-b]pyridine-2-carboxamides Are a New Class of Antiplasmodial Agents” (Molecules, 2020)
